Laboratory results as given in patent US5284856A, “Oncogene-encoded kinases inhibition using 4-H-1-benzopyran-4-one derivatives” (Hoechst Aktiengesellschaft, priority 1988, dated 1994).
Where a name gives a salt, the structure may show the parent alone.

tested on: A 549; assay: SRC Tumor Test (implantation under renal capsule of nude mouse), bronchogenic carcinoma A 549; type: in vivo; details: A 549, 35 mg/kg/day i.v., days 2-15
Procedure: (§1) Single cell suspensions (from cell culture A 549 or disaggregated human tumor xenografts LXF 529) in Beriplast (Behringwerke AG) were diluted 1:2 with RPMI 1640 supplemented with 15% FCS to a final cell concentration of 10^7 cells/50 μl. This suspension was sucked quickly into 50 μglass capillaries (diameter 1.5 mm), of which the inner walls had been moistered with a thrombin/CaCl2 solution (500 units thrombin in 1 ml 40 mmol CaCl2).
(§2) After solidification of the cell-fibrin mixture (about 5 min at RT) the fibrin clot has been removed from the glass capillary into a petridish by air pressure. The fibrin clot was cut into 2 mm pieces (≈5×10^5 cells per piece) and the pieces were stored in RPMI 1640 supplemented with 15% FCS until implantation.
(§3) A single fibrin piece was transferred under the renal capsule of a nude mouse and, subsequently, two perpendicular diameters of the implanted piece were measured by microscope with an ocular micrometer (day 0). The tumor size was calculated according to
b=diameter perpendicular to a […]
(§4) On day 21 after implantation the animals were sacrificed, the kidney was exteriorized and the tumor size was measured again. The effectivity of the test drug was calculated from the tumor growth inhibition.
The relative tumor size VR was calculated according the formula [formula] […]

Which T/C does the source give for CN1CC[C@H](c2c(O)cc(O)c3c(=O)cc(-c4cccc(Br)c4)oc23)[C@H](O)C1 (relative stereo) [Exmp. 17, (±)-cis-5,7-Dihydroxy-2-(3-bromophenyl)-8-[4-(3-hydroxy-1-methyl)piperidinyl]-4H-1-benzopyran-4-one hydrochloride] here?
Its T/C is 70%.

same assay, conditions: A 549, 100 mg/kg/day p.o., days 2-15

For CN1CC[C@H](c2c(O)cc(O)c3c(=O)cc(-c4cccc(Br)c4)oc23)[C@H](O)C1 (relative stereo) [Exmp. 17, (±)-cis-5,7-Dihydroxy-2-(3-bromophenyl)-8-[4-(3-hydroxy-1-methyl)piperidinyl]-4H-1-benzopyran-4-one hydrochloride], which T/C is on record?
Its T/C is 73%.

tested on: LXF 529; assay: SRC Tumor Test (implantation under renal capsule of nude mouse), bronchogenic carcinoma LXF 529; type: in vivo, human tumor xenograft in nude mouse; details: LXF 529, 2 mg/kg/day i.v., days 2-15
Procedure: as §1, §2, §3
b=diameter perpendicular to a
The substance was given i.v. or p.o. daily on day 2-15 with the maximal tolerable dose (MTD) and a dose 2/3 of the MTD value according to the pretests. 5 mice/group were used.
as §4
The relative tumor size VR was calculated according the formula [formula] Vt =tumor size at the end of experiment (day 21) V0 =tumor size as day of implantation
Subsequently the median relative tumor size of the treated group (VT) was related to the corresponding median relative tumor size of controls (VC) according to the formula [formula] The statistical significance (p 0.05) of the antitumoral effects was calculated using the Wilcoxon U test.

Which T/C does the source give for CN1CC[C@H](c2c(O)cc(O)c3c(=O)cc(-c4ccccc4Cl)oc23)[C@H](O)C1 (single isomer, unassigned) [Exmp. 9, (-)-cis-5,7-Dihydroxy-2-(2-chlorophenyl)-8-[4-(3-hydroxy-1-methyl)piperidinyl]-4H-1-benzopyran-4-one hydrochloride] here?
The T/C was 59%.

same assay, conditions: LXF 529, 4 mg/kg/day i.v., days 2-15

How did the T/C turn out when CN1CC[C@H](c2c(O)cc(O)c3c(=O)cc(-c4ccccc4Cl)oc23)[C@H](O)C1 (single isomer, unassigned) [Exmp. 9, (-)-cis-5,7-Dihydroxy-2-(2-chlorophenyl)-8-[4-(3-hydroxy-1-methyl)piperidinyl]-4H-1-benzopyran-4-one hydrochloride] was run?
Its T/C is 51%.

same assay, conditions: LXF 529, 25 mg/kg/day i.v., days 2-15; n.s. = not significant (P > 0.05)

For CN1CC[C@H](c2c(O)cc(O)c3c(=O)cc(-c4cccc(Br)c4)oc23)[C@H](O)C1 (relative stereo) [Exmp. 17, (±)-cis-5,7-Dihydroxy-2-(3-bromophenyl)-8-[4-(3-hydroxy-1-methyl)piperidinyl]-4H-1-benzopyran-4-one hydrochloride], which T/C is on record?
Its T/C is 81%.

same assay, conditions: LXF 529, 35 mg/kg/day i.v., days 2-15

Which T/C does the source give for CN1CC[C@H](c2c(O)cc(O)c3c(=O)cc(-c4cccc(Br)c4)oc23)[C@H](O)C1 (relative stereo) [Exmp. 17, (±)-cis-5,7-Dihydroxy-2-(3-bromophenyl)-8-[4-(3-hydroxy-1-methyl)piperidinyl]-4H-1-benzopyran-4-one hydrochloride] here?
Its T/C is 67%.

same assay, conditions: LXF 529, 100 mg/kg/day i.v., days 2-15; n.s. = not significant (P > 0.05)

How did the T/C turn out when CN1CC[C@H](c2c(O)cc(O)c3c(=O)cc(-c4ccc(O)cc4)oc23)[C@H](O)C1 (relative stereo) [Exmp. 19, (±)-cis-5,7-Dihydroxy-2-(4-hydroxyphenyl)-8-[4-(3-hydroxy-1-methyl)piperidinyl]-4H-1-benzopyran-4-one] was run?
Its T/C is 98%.

same assay, conditions: LXF 529, 150 mg/kg/day i.v., days 2-15

CN1CC[C@H](c2c(O)cc(O)c3c(=O)cc(-c4ccc(O)cc4)oc23)[C@H](O)C1 (relative stereo) [Exmp. 19, (±)-cis-5,7-Dihydroxy-2-(4-hydroxyphenyl)-8-[4-(3-hydroxy-1-methyl)piperidinyl]-4H-1-benzopyran-4-one] was tested. Which T/C did it give?
The T/C was 80%.

tested on: T1, cAMP-dependent protein kinase; assay: 3',5'-cAMP-dependent protein kinase inhibition (catalytic sub-unit, kemptide substrate); type: biochemical; details: 45 μg/ml inhibitor, 40 μM ATP, 15 minutes at 30° C., pH 6.9; hydrochloride
T1 construct: purchased Sigma Chemical Co., St. Louis, Mo., USA
Procedure: Assay for 3', 5'-cAMP-Dependent Protein Kinase Inhibition
The catalytic sub-unit of cAMP-dependent protein kinase (Sigma) was reconstituted as described by Sigma (Sigma Chemical Co., St. Louis, Mo., USA). The enzyme activity was measured with kemptide (Sigma) (Leu-Arg-Arg-Ala-Ser-Leu-Gly) as the substrate. The inhibitor was preincubated with the enzyme, substrate (190 μM), Mg^2+ (5 mM), 0.25 mg/ml of BSA and 3.75 mM of mercaptoethanol in 50 mM of MOPA (4-morpholinopropanesulfonic acid), pH 6.9. The reaction was initiated by adding γ-^32 P ATP (40 μM). After 15 minutes at 30° C., an aliquot amount was transferred to p81 ion exchange paper (2×2 cm; Whatman Paper Ltd., Great Britain), the paper was immersed in 75 mM H3 PO4, washed and dried, and the incorporation of ^32 P was determined by means of a liquid scintillation counter.

How did the “% inhibition of cAMP-dependent protein kinase at an inhibitor concentration of 45 μg/ml” value turn out when CN1CC[C@H](c2c(O)cc(O)c3c(=O)cc(-c4ccccc4)oc23)[C@H](O)C1 (single isomer, unassigned) [phenyl HCl (+), (+)-cis-5,7-dihydroxy-2-phenyl-8-[4-(3-hydroxy-1-methyl)piperidinyl]-4H-1-benzopyran-4-one hydrochloride] was run?
The value was 13%.

How did the “% inhibition of cAMP-dependent protein kinase at an inhibitor concentration of 45 μg/ml” value turn out when CN1CC[C@H](c2c(O)cc(O)c3c(=O)cc(-c4ccccc4)oc23)[C@H](O)C1 (single isomer, unassigned) [phenyl HCl (-), (-)-cis-5,7-dihydroxy-2-phenyl-8-[4-(3-hydroxy-1-methyl)piperidinyl]-4H-1-benzopyran-4-one hydrochloride] was run?
Its value is 46%.

same assay, conditions: pH 6.9, 45 μg/ml inhibitor, 40 μM ATP, 15 minutes at 30° C., read-out: % inhibition of cAMP-dependent protein kinase at an inhibitor concentration of 45 μg/ml

For CN1CCC(c2c(O)cc(O)c3c(=O)cc(-c4ccccc4Br)oc23)C(O)C1 (racemic) [2-bromophenyl (±)], which inhibition at 45 µg/mL is on record?
Its inhibition at 45 µg/mL is 63%.

With CN1CCC(c2c(O)cc(O)c3c(=O)cc(-c4ccccc4F)oc23)C(O)C1 (racemic) [2-fluorophenyl HCl (±)] as the molecule, how does the inhibition at 45 µg/mL read?
The inhibition at 45 µg/mL was 0%.

How did the inhibition at 45 µg/mL turn out when CN1CCC(c2c(O)cc(O)c3c(=O)cc(-c4ccc(-c5ccccc5)cc4)oc23)C(O)C1 (racemic) [4-biphenyl HCl (±)] was run?
Its inhibition at 45 µg/mL is 37%.

How did the inhibition at 45 µg/mL turn out when CN1CCC(c2c(O)cc(O)c3c(=O)cc(-c4ccc(Br)cc4)oc23)C(O)C1 (racemic) [4-bromophenyl HCl (±)] was run?
The inhibition at 45 µg/mL was 65%.

Which inhibition at 45 µg/mL does the source give for CN1CCC(c2c(O)cc(O)c3c(=O)cc(-c4ccc(Cl)cc4)oc23)C(O)C1 (racemic) [4-chlorophenyl HCl (±)] here?
Its inhibition at 45 µg/mL is 37%.

Which inhibition at 45 µg/mL does the source give for CN1CCC(c2c(O)cc(O)c3c(=O)cc(-c4ccc(F)cc4)oc23)C(O)C1 (racemic) [4-fluorophenyl HCl (±)] here?
Its inhibition at 45 µg/mL is 25%.

How did the inhibition at 45 µg/mL turn out when CN1CCC(c2c(O)cc(O)c3c(=O)cc(Cc4ccccc4Cl)oc23)C(O)C1 (racemic) [(2-chlorophenyl)methyl HCl (±)] was run?
Its inhibition at 45 µg/mL is 69%.

For CCc1cc(=O)c2c(O)cc(O)c(C3CCN(C)CC3O)c2o1 (racemic) [ethyl HCl (±)], which inhibition at 45 µg/mL is on record?
Its inhibition at 45 µg/mL is 0%.

With CCCc1cc(=O)c2c(O)cc(O)c(C3CCN(C)CC3O)c2o1 (racemic) [n-propyl HCl (±)] as the molecule, how does the inhibition at 45 µg/mL read?
The inhibition at 45 µg/mL was 0%.

Which inhibition at 45 µg/mL does the source give for CN1CC[C@H](c2c(O)cc(O)c3c(=O)cc(-c4ccccc4Cl)oc23)[C@H](O)C1 (relative stereo) [2-chlorophenyl HCl (±), (±)-cis-5,7-dihydroxy-2-(2-chlorophenyl)-8-[4-(3-hydroxy-1-methyl)piperidinyl]-4H-1-benzopyran-4-one hydrochloride] here?
The inhibition at 45 µg/mL was 29%.

Which inhibition at 45 µg/mL does the source give for CN1CC[C@H](c2c(O)cc(O)c3c(=O)cc(-c4ccc5ccccc5c4)oc23)[C@H](O)C1 (relative stereo) [2-naphthyl HCl (±), (±)-cis-5,7-dihydroxy-2-(2-naphthyl)-8-[4-(3-hydroxy-1-methyl)piperidinyl]-4H-1-benzopyran-4-one hydrochloride] here?
Its inhibition at 45 µg/mL is 0%.

Which inhibition at 45 µg/mL does the source give for CN1CC[C@H](c2c(O)cc(O)c3c(=O)cc(-c4ccccn4)oc23)[C@H](O)C1 (relative stereo) [2-pyridyl HCl (±), (±)-cis-5,7-dihydroxy-2-(2-pyridyl)-8-[4-(3-hydroxy-1-methyl)piperidinyl]-4H-1-benzopyran-4-one hydrochloride] here?
Its inhibition at 45 µg/mL is 0%.

CN1CC[C@H](c2c(O)cc(O)c3c(=O)cc(-c4cccs4)oc23)[C@H](O)C1 (relative stereo) [2-thiophenyl (±), (±)-cis-5,7-dihydroxy-2-(2-thienyl)-8-[4-(3-hydroxy-1-methyl)piperidinyl]-4H-1-benzopyran-4-one] was tested. Which inhibition at 45 µg/mL did it give?
Its inhibition at 45 µg/mL is 14%.

How did the inhibition at 45 µg/mL turn out when CN1CC[C@H](c2c(O)cc(O)c3c(=O)cc(-c4cccnc4)oc23)[C@H](O)C1 (relative stereo) [3-pyridyl HCl (±), (±)-cis-5,7-dihydroxy-2-(3-pyridyl)-8-[4-(3-hydroxy-1-methyl)piperidinyl]-4H-1-benzopyran-4-one hydrochloride] was run?
The inhibition at 45 µg/mL was 0%.

Cc1ccc(-c2cc(=O)c3c(O)cc(O)c([C@H]4CCN(C)C[C@H]4O)c3o2)cc1 (relative stereo) [4-methylphenyl HCl (±), (±)-cis-5,7-dihydroxy-2-(4-methylphenyl)-8-[4-(3-hydroxy-1-methyl)piperidinyl]-4H-1-benzopyran-4-one hydrochloride] was tested. Which inhibition at 45 µg/mL did it give?
The inhibition at 45 µg/mL was 55%.

With CN1CC[C@H](c2c(O)cc(O)c3c(=O)cc(-c4ccncc4)oc23)[C@H](O)C1 (relative stereo) [4-pyridyl HCl (±), (±)-cis-5,7-dihydroxy-2-(4-pyridyl)-8-[4-(3-hydroxy-1-methyl)piperidinyl]-4H-1-benzopyran-4-one hydrochloride] as the molecule, how does the inhibition at 45 µg/mL read?
Its inhibition at 45 µg/mL is 12%.

For CN1CC[C@H](c2c(O)cc(O)c3c(=O)cc(-c4ccccc4)oc23)[C@H](O)C1 (relative stereo) [phenyl HCl (±), (±)-cis-5,7-dihydroxy-2-phenyl-8-[4-(3-hydroxy-1-methyl)piperidinyl]-4H-1-benzopyran-4-one hydrochloride], which inhibition at 45 µg/mL is on record?
The inhibition at 45 µg/mL was 48%.

How did the inhibition at 45 µg/mL turn out when CN1CC[C@H](c2c(O)cc(O)c3c(=O)cc(-c4ccccc4Cl)oc23)[C@H](O)C1 (single isomer, unassigned) [2-chlorophenyl HCl (+), (+)-cis-5,7-dihydroxy-2-(2-chlorophenyl)-8-[4-(3-hydroxy-1-methyl)piperidinyl]-4H-1-benzopyran-4-one hydrochloride] was run?
Its inhibition at 45 µg/mL is 27%.

How did the inhibition at 45 µg/mL turn out when CN1CC[C@H](c2c(O)cc(O)c3c(=O)cc(-c4ccccn4)oc23)[C@H](O)C1 (single isomer, unassigned) [2-pyridyl HCl (-), (-)-cis-5,7-dihydroxy-2-(2-pyridyl)-8-[4-(3-hydroxy-1-methyl)piperidinyl]-4H-1-benzopyran-4-one hydrochloride] was run?
The inhibition at 45 µg/mL was 6%.

How did the inhibition at 45 µg/mL turn out when CCCc1cc(=O)c2c(O)cc(O)c(C3CCN(C)CC3O)c2o1 (single isomer, unassigned) [n-propyl HCl (-)] was run?
Its inhibition at 45 µg/mL is 5%.
